Tests used:
Assay in all cases: relative viability (nuclei count vs DMSO), 5 days (fraction); higher = more cells survive
YM155 + AZD7762 = compound: COCC[n+]1c2c(n(Cc3cnccn3)c1C)C(=O)c1ccccc1C2=O [YM155] + NC(=O)Nc1cc(-c2cccc(F)c2)sc1C(=O)N[C@H]1CCCNC1 [AZD7762] (partner 0.2 µM)
Summary of the method: (§1)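 Nuclei were stained with Hoechst during a one-step fixation (final 0.05% Triton X-100, 1% formaldehyde, 1 ug/ml Hoechst) carried out 5 days after dosing, then counted on 4× images. The cells, lung cancer lines in 1536-well plates, had been dosed by pin tool the day after seeding with one drug alone or a fixed anchor-drug dose plus five library-drug doses (not always all listed) in √10 steps. Relative viability is the nuclei count in treated wells divided by that in vehicle wells, and each value is the median of duplicate plates.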

Quizartinib + Alpelisib = compound: CC(C)(C)c1cc(NC(=O)Nc2ccc(-c3cn4c(n3)sc3cc(OCCN5CCOCC5)ccc34)cc2)no1 [Quizartinib] + Cc1nc(NC(=O)N2CCC[C@H]2C(N)=O)sc1-c1ccnc(C(C)(C)C(F)(F)F)c1 [Alpelisib] (partner 2 µM)
Summary of the method: as §1

YM155 + Bortezomib = compound: COCC[n+]1c2c(n(Cc3cnccn3)c1C)C(=O)c1ccccc1C2=O [YM155] + CC(C)C[C@H](NC(=O)[C@H](Cc1ccccc1)NC(=O)c1cnccn1)B(O)O [Bortezomib] (partner 0.002 µM)
Summary of the method: as §1

YM155 + Palbociclib = compound: COCC[n+]1c2c(n(Cc3cnccn3)c1C)C(=O)c1ccccc1C2=O [YM155] + CC(=O)c1c(C)c2cnc(Nc3ccc(N4CCNCC4)cn3)nc2n(C2CCCC2)c1=O [Palbociclib] (partner 0.5 µM)
Summary of the method: as §1

Cell Line | relative viability (YM155 + AZD7762; first compound 0.002 µM) | relative viability (YM155 + AZD7762; first compound 0.006325 µM) | relative viability (YM155 + AZD7762; first compound 0.02 µM) | relative viability (YM155 + AZD7762; first compound 0.06325 µM) | relative viability (Quizartinib + Alpelisib; first compound 0.001 µM) | relative viability (Quizartinib + Alpelisib; first compound 0.003162 µM) | relative viability (Quizartinib + Alpelisib; first compound 0.01 µM) | relative viability (Quizartinib + Alpelisib; first compound 0.03162 µM) | relative viability (Quizartinib + Alpelisib; first compound 0.1 µM) | relative viability (YM155 + Bortezomib; first compound 0.002 µM) | relative viability (YM155 + Bortezomib; first compound 0.006325 µM) | relative viability (YM155 + Bortezomib; first compound 0.02 µM) | relative viability (YM155 + Bortezomib; first compound 0.06325 µM) | relative viability (YM155 + Palbociclib; first compound 0.006325 µM) | relative viability (YM155 + Palbociclib; first compound 0.02 µM) | relative viability (YM155 + Palbociclib; first compound 0.06325 µM) | relative viability (YM155 + Palbociclib; first compound 0.002 µM)
ABC-1 | 0.66 | 0.84 | 0.47 | 0.195 | 0.951 | 0.996 | 1.02 | 0.497 | 1.12 | 0.271 | 0.4 | 0.241 | 0.209 | 0.662 | 0.269 | 0.283 | –
HCC-15 | 0.661 | 1.28 | 1.19 | 1.17 | 0.833 | 0.881 | 0.941 | 0.884 | 0.787 | 0.939 | 1.02 | 0.965 | 0.953 | 0.854 | 0.701 | 0.749 | 0.702
NCI-H1666 | 0.821 | 0.824 | 0.907 | 0.847 | 0.793 | 0.956 | 1.03 | 0.742 | 1.02 | 0.644 | – | 0.815 | 0.718 | 0.701 | 0.651 | 0.611 | 0.616
EMC-BAC-2 | 1.04 | 1.15 | 1.07 | 0.785 | 0.695 | 0.696 | 0.762 | 0.766 | 0.73 | 1.03 | 1.08 | 1.04 | 1.06 | 0.514 | 0.536 | 0.384 | 0.49
NCI-H460 | 0.596 | 0.628 | 0.777 | 0.459 | 0.358 | 0.458 | 0.463 | – | 0.406 | 0.991 | 1.24 | 1.19 | 1.04 | 0.169 | 0.226 | 0.212 | 0.166
NCI-H2405 | 0.609 | 0.656 | 0.578 | 0.39 | 0.579 | 0.748 | 0.847 | 0.733 | 0.978 | 0.951 | 1.01 | 0.971 | 0.701 | 0.508 | 0.424 | 0.269 | 0.515
NCI-H727 | 0.768 | 0.676 | 0.684 | 0.703 | 0.482 | – | 0.588 | 0.586 | 0.556 | 0.88 | 0.771 | 0.924 | 0.977 | 0.694 | 0.615 | 0.705 | 0.639
NCI-H1975 | 0.726 | 0.734 | 0.701 | 0.439 | 0.638 | 0.521 | 0.655 | 0.545 | 0.585 | 0.335 | 0.43 | 0.444 | 0.272 | 0.531 | 0.643 | 0.259 | 0.463
BEN | 0.538 | 0.625 | 0.769 | 0.692 | 0.919 | 0.863 | 1.05 | 0.795 | 0.969 | 0.665 | 0.849 | 0.852 | 0.906 | 0.412 | 0.477 | 0.545 | 0.482
NCI-H1993 | 0.687 | 0.775 | 0.475 | 0.537 | 0.668 | 0.638 | 0.614 | 0.65 | 0.642 | 1.12 | 1.05 | 0.922 | 0.69 | 0.657 | 0.554 | 0.43 | 0.557
PC-3 [JPC-3] | 0.742 | 0.872 | 0.927 | 0.697 | 0.953 | 1.01 | 1.14 | 1.02 | 0.998 | 0.823 | 0.94 | 0.774 | 0.904 | 0.565 | 0.571 | 0.52 | 0.526
NCI-H650 | 0.835 | 0.958 | 1.08 | 0.776 | 1.02 | 1.12 | 1.14 | 1.14 | 1.14 | 1.02 | 0.771 | 1.08 | 0.871 | 0.292 | 0.383 | 0.31 | 0.314
NCI-H2087 | 1.18 | 1.29 | 1.26 | 1.04 | 1.05 | 0.98 | 1.19 | 1.14 | 0.836 | 0.872 | 0.76 | 0.867 | 0.783 | 0.247 | 0.256 | 0.208 | 0.207
NCI-H2126 | 0.995 | 1.04 | 1.08 | 1.05 | 0.76 | 0.726 | 0.757 | 0.774 | 0.753 | 1.07 | 1.13 | 1.09 | 1.16 | 0.369 | 0.369 | 0.369 | 0.354
NCI-H322M | 0.53 | 0.579 | 0.593 | 0.572 | 0.707 | 0.779 | 0.799 | 0.758 | 0.787 | 1.22 | 1.18 | 1.19 | 1.37 | 0.471 | 0.503 | 0.473 | 0.433
EPLC-272H | 0.227 | 0.296 | 0.196 | 0.253 | 0.667 | 1.04 | 0.95 | 0.969 | 1.06 | 0.846 | 1.04 | 0.875 | 0.862 | 0.27 | 0.35 | 0.327 | 0.314
